Experimental findings from article PMC11505594, “Design, Synthesis, and Anti-Melanogenic Activity of 2-Mercaptomethylbenzo[d]imidazole Derivatives Serving as Tyrosinase Inhibitors: An In Silico, In Vitro, and In Vivo Exploration” (Antioxidants, 2024) are described below.

Like-named read-outs stand apart in the source and are kept apart here.

Assay [1] concerns the target T1, mushroom TYR (Agaricus bisporus, UniProt C7FF04). Briefly: Mushroom TYR activity assay with and without CuSO4. To be noted: 20 μM derivative, L-tyrosine. Format: biochemical. The procedure:
To determine whether copper(II) ions influence the TYR-inhibitory activity of 2-MMBI derivatives, the effects of these derivatives on mushroom TYR activity were measured with and without CuSO4. Briefly, mushroom TYR aqueous solution (20 μL, 1 unit/μL) was mixed with 2-MMBI derivatives (1, 3, and 8–10) (10 μL, final concentration: 20 μM) and with the substrate solution (170 μL), comprising 17.2 mM phosphate buffer (pH 6.5) and 345 μM L-tyrosine, in the presence or absence of CuSO4 (50 μL, final concentration: 50 μM) in each well of a 96-well plate. […] Each assay was carried out independently in triplicate.

Assay [2] deals with T1, mushroom TYR. Put plainly: Kinetic studies on mushroom TYR (Lineweaver–Burk and Dixon plots). Format: biochemical. To be noted: L-dopa as substrate. The procedure:
Kinetic experiments were performed to obtain Lineweaver–Burk plots for the analysis of mushroom TYR kinetics. Mushroom TYR solution (20 μL, 150 units/mL) was added to each well of a 96-well microplate containing 2-MMBI derivatives (10 μL; 0, 7.5, 15, and 30 μM for 1; 0, 5, 10, and 20 μM for 3 and 8; and 0, 12.5, 25, and 50 μM for 9) and a substrate solution (170 μL) composed of sodium phosphate buffer (17.2 mM; pH 6.5) and L-dopa (various concentrations: 0.5, 1, 2, 4, 8, and 16 mM). […] Lineweaver–Burk plots for each 2-MMBI derivative were obtained by plotting the value of 1/[substrate] against the value of (min/ΔOD475). Lineweaver–Burk plots were transformed into corresponding Dixon plots by plotting the value of (min/ΔOD475) against the value of the 2-MMBI derivative concentration.

In another assay the test system is B16F10 cells. Put plainly: Melanin content measurement assay in B16F10 cells. The assay is classed as cell-based, murine. The settings on record: α-MSH 1 μM plus IBMX 200 μM, 72 h; for effect on B16F10 cellular melanin production at three concentrations: 2, 5, and 10 μM. The procedure: A 6-well plate containing 5 × 10^3 B16F10 cells per well was incubated at 37 °C and 5% CO2 for 1 day. […] After 1 h, 1 μM α-MSH and 200 μM IBMX were added to each well, and the plate was subsequently incubated at 37 °C and 5% CO2 for 72 h. The cells were exposed to […] 1N-NaOH solution and cultured at 60 °C for 1 h after washing with PBS. The lysates were transferred to each well of a 96-well plate, and the optical density at 405 nm was recorded using a VersaMax™ reader. […] Each assay was independently performed three times.

In another assay the target is T2, B16F10 cellular TYR (Mus musculus, UniProt P11344).
T2 construct: The in situ cellular TYR activities of the 2-MMBI derivatives were investigated using B16F10 cells; endogenous in cells; host or cells: B16F10 murine melanoma cells stimulated with alpha-MSH and IBMX
T2 sequence (P11344 19-533): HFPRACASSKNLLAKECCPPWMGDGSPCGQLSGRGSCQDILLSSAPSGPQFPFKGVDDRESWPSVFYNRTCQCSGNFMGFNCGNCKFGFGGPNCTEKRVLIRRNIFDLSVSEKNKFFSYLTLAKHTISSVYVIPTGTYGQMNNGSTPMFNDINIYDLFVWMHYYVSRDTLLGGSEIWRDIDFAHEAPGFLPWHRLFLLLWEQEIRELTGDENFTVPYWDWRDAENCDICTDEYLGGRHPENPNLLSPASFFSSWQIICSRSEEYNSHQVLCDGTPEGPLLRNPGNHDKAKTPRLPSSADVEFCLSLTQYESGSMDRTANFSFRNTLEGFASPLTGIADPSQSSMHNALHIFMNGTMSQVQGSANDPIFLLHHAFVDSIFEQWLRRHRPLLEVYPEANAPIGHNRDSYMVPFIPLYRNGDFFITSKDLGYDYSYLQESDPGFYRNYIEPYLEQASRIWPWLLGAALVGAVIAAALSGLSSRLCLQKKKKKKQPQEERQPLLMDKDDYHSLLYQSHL
Briefly: TYR activity assay in B16F10 cells. The settings on record: 2, 5, and 10 μM; α-MSH 1 μM plus IBMX 200 μM; 72 h. The assay is classed as cell-based, murine. On the procedure: A 6-well plate containing 5 × 10^3 B16F10 cells per well was incubated (37 °C and 5% CO2) for 1 day. […] Stimulators (1 μM α-MSH and 200 μM IBMX) were added after 1 h, and the plate was incubated (37 °C and 5% CO2) for 72 h. After washing with PBS, 100 μL lysis buffer consisting of 1% Triton X-100, 1 mM phenylmethylsulfonyl fluoride, and 50 mM sodium phosphate buffer (pH 6.5) in a volume ratio of 1:1:18 was added to each well. Following an incubation period of 30 min at −80 °C, the cell lysates were centrifuged at 12,000× g for 10 min at 4 °C to obtain the supernatants. […] Each assay was independently performed three times.

Another assay concerns zebrafish larvae. Put plainly: Melanogenesis (depigmentation) assay using zebrafish embryos. Format: in vivo. The settings on record: for pigmentation area of zebrafish larvae (CS analyzer, dorsal and lateral views): derivatives 0.03 and 0.1 mM, kojic acid 20 mM. The procedure:
To assess depigmentation in vivo, wild-type zebrafish (Danio rerio) embryos were acquired free of charge from the Zebrafish Center for Disease Modeling (ZCDM) located at Chungnam National University in Daejeon, Republic of Korea. The zebrafish were raised in tanks maintained at 28 °C in the ZCDM. The tanks were oxygenated, and the tank lights were turned off for 10 h and on for 14 h. The zebrafish embryos used for in vivo depigmentation experiments were obtained through natural mating. The E3 solution for zebrafish embryos was prepared by dissolving 19.9 mg magnesium sulfate, 6.4 mg potassium chloride, 18.3 mg calcium chloride, and 146.1 mg sodium chloride in 500 mL distilled water. E3-MB (methylene blue) solution was prepared by adding MB to the E3 solution to create a 0.001% MB solution. The acquired zebrafish embryos were transferred to a culture dish containing the E3-MB solution. The culture dish was incubated at 28 °C until zebrafish embryos were used. Since zebrafish embryos are sensitive and can be easily killed by the chorion removal process 20 h post-fertilization (20 hpf), the chorion was removed at 24 hpf through treatment with pronase (Sigma-Aldrich, St. Louis, MO, USA). Five dechorionated zebrafish embryos were transferred to each well of 48-well microplates containing 250 μL E3 solution. […] Zebrafish larvae were anesthetized with tricaine at 76 hpf and placed on a 1% methylcellulose block to determine the degree of zebrafish larva depigmentation. Dorsal and lateral images of the zebrafish larvae were acquired using an SMZ745T microscope (Nikon, Tokyo, Japan). The pigmented areas of the dorsal and lateral images were obtained using CS analyzer 3.0 image analysis software (ATTO, Tokyo, Japan). Each assay (n = 7) was independently performed two times.

A short description of assay [3]: Copper(II) ion-chelating activity using pyrocatechol violet. The settings on record: test samples 100 μM, pH 6.0. On the procedure: Copper(II) ion-chelating activity was measured using pyrocatechol violet reagent, a copper(II)-chelating agent. Copper(II) sulfate solution (10 μL, 1 mg/mL) was added to each well of a 96-well microplate containing acetic acid–sodium acetate buffer (280 μL, 50 mM [pH 6.0]), 2-MMBI derivative (1–10; 10 μL, 100 μM as a final concentration), and pyrocatechol violet (6 μL, 4 mM). Absorbance was measured at 632 nm using a VersaMax™ reader after the microplate was incubated for 20 min at 24 °C. Cu(II) ion-chelating activity (%) = 100 × [(Abscon − Abssam)/Abscon] where Abscon and Abssam are the absorbances of the control and samples, respectively. Each experiment was independently performed in triplicate.

A short description of assay [4]: Reactive oxygen species removal activity assay (SIN-1, DCFH). The settings on record: test samples 40 μM; SIN-1 10 μM. The procedure: To assess reactive oxygen species (ROS) removal activity, a DCFH solution was prepared by mixing 50 μL DCFH-DA (1.25 mM), 50 μL esterase (0.6 unit/μL), and 4.9 mL phosphate buffer (50 mM) and maintained in the dark for 30 min. The SIN-1 solution (10 μL) was added to each well of a 96-black well that contained the test sample (10 μL; 2-MMBI derivatives 1–10 and Trolox [positive material]) and phosphate buffer (180 μL). 2-MMBI derivatives, Trolox, and SIN-1 were exposed at final concentrations of 40, 40, and 10 μM, respectively. The prepared DCFH solution (50 μL) was added to each well after 10 min. The fluorescence intensity of 2′,7′-dichlorofluorescein in the wells was measured at 535 nm using a microplate reader (Berthold Advances GmbH & Co., Bad Wildbad, Germany) with an excitation wavelength of 485 nm. Each experiment was conducted independently four times.

A short description of assay [5]: DPPH radical removal assay. The settings on record: 500 μM; 30 min in the dark. On the procedure:
An aliquot (20-μL DMSO solution) of a test sample (5 mM 2-MMBI derivatives 1–10 and 5 mM vitamin C [positive material]) was added to each well of a 96-well microplate containing 180 μL DPPH methanol solution (0.2 mM). After the mixture was left in the dark at 22 °C for 30 min, the optical density at 517 nm was recorded using a VersaMax™ reader. Each experiment was conducted independently in triplicate.
For orientation: The DPPH test is a chemical assay of radical scavenging.

The next assay is described as follows: ABTS●+ scavenging assay. To be noted: 100 μM. The procedure: A 2.45 mM K2S2O8 aqueous solution was mixed with a 7-mM ABTS aqueous solution in a 1:1 volume ratio. The mixture was left at 20 °C in the dark for 19 h. To adjust the adequate absorbance (0.70 ± 0.01) at 732 nm, the mixture was diluted with methanol. The diluted ABTS^●+ mixture (90 μL) in each well of a 96-well plate was mixed with a test sample (2-MMBI derivatives 1–10 and Trolox [positive material]; 10 μL in EtOH/DMSO [9/1 (v/v)] solution). All test samples were tested at a final concentration of 100 μM. Prior to the measurement of well optical density at 732 nm at 1-min intervals for 10 min using a VersaMax™ reader, the test sample-ABTS^●+ mixture was stored for 2 min in the dark. Each experiment was conducted independently in triplicate.

Setting [6] is: CuSO4 50 μM added externally, read-out: inhibition of mushroom TYR activity with CuSO4.
[7] abbreviates: no CuSO4 added externally, read-out: inhibition of mushroom TYR activity without CuSO4.
[8] abbreviates: compared with kojic acid 20 mM, 48 h.

T1 sequence (C7FF04 2-392): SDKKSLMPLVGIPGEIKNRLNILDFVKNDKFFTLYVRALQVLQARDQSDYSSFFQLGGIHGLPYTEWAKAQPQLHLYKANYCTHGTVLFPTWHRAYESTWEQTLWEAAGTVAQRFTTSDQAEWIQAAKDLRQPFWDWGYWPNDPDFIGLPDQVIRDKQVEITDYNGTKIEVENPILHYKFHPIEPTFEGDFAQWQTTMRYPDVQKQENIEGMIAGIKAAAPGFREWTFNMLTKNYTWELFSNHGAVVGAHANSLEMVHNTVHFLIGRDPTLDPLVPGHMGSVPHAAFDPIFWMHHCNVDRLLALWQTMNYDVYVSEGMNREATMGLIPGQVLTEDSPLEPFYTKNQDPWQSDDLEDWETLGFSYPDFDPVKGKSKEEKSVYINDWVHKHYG

For the compound `COc1ccc2[nH]c(CS)nc2c1` [Derivative 3, (5-Methoxy-1H-benzo[d]imidazol-2-yl)methanethiol], the inhibition at 20 µM on mushroom TYR [1] (setting [6]) stood at 34%. Moreover, the inhibition at 20 µM on mushroom TYR [1] (setting [7]) is 86 to 89%. In addition, the inhibition mechanism entry against mushroom TYR [2] is reported as “competitive TYR inhibitors”. Moreover, in the assay on B16F10 cells, the “effect on B16F10 cellular melanin production at 10 μM” value (from here on “effect … at 10 μM”) is “inhibited melanin production more strongly than kojic acid” and the “effect on B16F10 cellular melanin production at three concentrations” value is reported as “significantly decreased the melanin levels increased by the stimulators in a concentration-dependent manner”. In addition, the “effect on B16F10 cellular TYR activity” value at B16F10 cellular TYR is recorded as “significantly reduced stimulator-enhanced cellular TYR activity in a dose-dependent manner”. Moreover, in the assay with zebrafish larvae (setting [8]), the “depigmentation of zebrafish larvae at 0.03 mM” value is reported as “much stronger depigmentation efficacy than kojic acid”. Also, in the assay on zebrafish larvae (0.1 mM, compared with kojic acid 20 mM, 48 h), the “depigmentation of zebrafish larvae at 0.1 mM” value is “much more potent inhibition of melanin production in zebrafish larvae than kojic acid”. Besides, the “pigmentation area of zebrafish larvae (CS analyzer, dorsal and lateral views)” value in the assay on zebrafish larvae is “reduced the pigmentation area more strongly than kojic acid in a concentration-dependent manner”.
As for `O=[N+]([O-])c1ccc2[nH]c(CS)nc2c1` [Derivative 6, (5-Nitro-1H-benzo[d]imidazol-2-yl)methanethiol], the copper chelating activity in assay [3] was found to be 35%. Also, in the assay with zebrafish larvae (0.03 and 0.1 mM, 48 h), the “depigmentation of zebrafish larvae at 0.03 and 0.1 mM” value is given as “did not exhibit significant depigmentation”. Besides, in assay [4], the ROS scavenging activity entry was “stronger ROS scavenging efficacy than the other derivatives”.
Regarding `Cc1ccc2[nH]c(CS)nc2c1` [Derivative 8, (5-Methyl-1H-benzo[d]imidazol-2-yl)methanethiol], the inhibition at 20 µM at mushroom TYR [1] (setting [6]) was determined as 63%. For the same compound, the inhibition at 20 µM on mushroom TYR [1] (setting [7]) was in the range of 86 to 89%. Moreover, the inhibition mechanism entry on mushroom TYR [2] is on record as “mixed TYR inhibitors”. In addition, in the assay on B16F10 cells, the “effect … at 10 μM” value was “inhibited melanin production more strongly than kojic acid” and the “effect on B16F10 cellular melanin production at three concentrations” value is “significantly decreased the melanin levels increased by the stimulators in a concentration-dependent manner”. Besides, on B16F10 cellular TYR, the “effect on B16F10 cellular TYR activity” value is recorded as “significantly reduced stimulator-enhanced cellular TYR activity in a dose-dependent manner”. Also, the “depigmentation of zebrafish larvae at 0.03 mM” value with zebrafish larvae (setting [8]) is “much stronger depigmentation efficacy than kojic acid”.
Take `O=c1cc(CO)occ1O` [Kojic acid, reference compound]: in assay [3], the copper chelating activity was found to be 27%. Moreover, the “effect … at 10 μM” value in the assay on B16F10 cells is listed as “decreased the stimulator-induced melanin levels”. Also, the “depigmentation of zebrafish larvae, kojic acid” value with zebrafish larvae (20 mM, 48 h, compared to control) was “significantly reduced melanin pigments”. Moreover, in the assay on zebrafish larvae, the “pigmentation area of zebrafish larvae (CS analyzer, dorsal and lateral views)” value is recorded as “significantly reduced pigmentation”.
With `O=C1O[C@H]([C@@H](O)CO)C(O)=C1O` [L-ASCORBIC acid, L-ascorbic acid], in assay [5], the “DPPH radical scavenging activity” value was found to be 97%.
In assay [3], `NC(=S)Nc1ccccc1` [PTU, phenylthiourea] yielded a copper chelating activity of 37%.
For the compound `Cc1c(C)c2c(c(C)c1O)CCC(C)(C(=O)O)O2` (stereo not drawn) [Trolox, reference compound], in “ABTS●+ scavenging assay”, the “ABTS●+ inhibition” value worked out at 99%. For the same compound, in [4], the ROS scavenging activity result is “highest ROS scavenging activity”.

Broadly, the inhibition is the percentage by which the read-out fell short of the control.
